According to the NIST ThermoML archive (doi:10.1021/je700215z):
Numbers after ± are expanded uncertainties.

What was measured:
[1] = xn = mol fraction of the nth substance listed

CCCCCC [hexane] + CCCCO
surface tension liquid-gas [mN/m], [1]
Conditions	283.15 K	288.15 K	293.15 K	298.15 K	303.15 K	308.15 K	313.15 K
x2 = 0.0519	19.78 ± 0.28	19.15 ± 0.27	18.6 ± 0.3	18.11 ± 0.27	17.55 ± 0.26	16.75 ± 0.26	16.4 ± 0.26
x2 = 0.0875	19.87 ± 0.28	19.26 ± 0.27	18.7 ± 0.3	18.2 ± 0.3	17.61 ± 0.26	16.8 ± 0.26	16.43 ± 0.26
x2 = 0.1959	20.17 ± 0.28	19.58 ± 0.27	19.03 ± 0.27	18.52 ± 0.27	17.92 ± 0.26	17.13 ± 0.26	16.74 ± 0.26
x2 = 0.2999	20.41 ± 0.28	19.88 ± 0.27	19.35 ± 0.27	18.84 ± 0.27	18.28 ± 0.26	17.52 ± 0.26	17.12 ± 0.26
x2 = 0.399	20.69 ± 0.28	20.14 ± 0.27	19.65 ± 0.27	19.1 ± 0.27	18.62 ± 0.26	17.91 ± 0.26	17.48 ± 0.26
x2 = 0.4914	20.93 ± 0.28	20.4 ± 0.27	19.96 ± 0.27	19.43 ± 0.27	18.92 ± 0.26	18.29 ± 0.26	17.83 ± 0.26
x2 = 0.5974	21.44 ± 0.28	20.9 ± 0.27	20.44 ± 0.27	19.91 ± 0.27	19.43 ± 0.27	18.82 ± 0.26	18.39 ± 0.26
x2 = 0.7044	22.14 ± 0.28	21.63 ± 0.28	21.18 ± 0.27	20.6 ± 0.3	20.17 ± 0.27	19.59 ± 0.26	19.12 ± 0.26
x2 = 0.8027	23.09 ± 0.28	22.54 ± 0.28	22.13 ± 0.28	21.54 ± 0.27	21.13 ± 0.27	20.6 ± 0.27	20.15 ± 0.27
x2 = 0.9088	24.37 ± 0.29	23.85 ± 0.29	23.44 ± 0.28	22.87 ± 0.28	22.51 ± 0.28	22.06 ± 0.28	21.6 ± 0.27
x2 = 0.953	24.93 ± 0.29	24.47 ± 0.29	24.07 ± 0.29	23.53 ± 0.28	23.18 ± 0.28	22.76 ± 0.28	22.37 ± 0.28

CCCCO [butan-1-ol]
Conditions	surface tension liquid-gas [mN/m]
283.15 K	25.55 ± 0.29
288.15 K	25.12 ± 0.29
293.15 K	24.78 ± 0.29
298.15 K	24.25 ± 0.29
303.15 K	23.95 ± 0.29
308.15 K	23.55 ± 0.28
313.15 K	23.15 ± 0.28

CCCCCC [hexane] + CCO
surface tension liquid-gas [mN/m], [1]
Conditions	283.15 K	288.15 K	293.15 K	298.15 K	303.15 K	308.15 K	313.15 K
x2 = 0.0855	19.7 ± 0.28	19.11 ± 0.27	18.57 ± 0.27	18.03 ± 0.27	17.49 ± 0.26	16.67 ± 0.26	16.3 ± 0.25
x2 = 0.1006	19.74 ± 0.28	19.11 ± 0.27	18.56 ± 0.27	18.03 ± 0.27	17.48 ± 0.26	16.66 ± 0.26	16.29 ± 0.25
x2 = 0.2107	19.73 ± 0.27	19.1 ± 0.3	18.55 ± 0.27	18.01 ± 0.26	17.42 ± 0.26	16.64 ± 0.25	16.2 ± 0.3
x2 = 0.2928	19.77 ± 0.27	19.18 ± 0.27	18.57 ± 0.27	18.03 ± 0.26	17.46 ± 0.26	16.68 ± 0.25	16.24 ± 0.25
x2 = 0.4128	19.9 ± 0.27	19.29 ± 0.27	18.71 ± 0.26	18.15 ± 0.26	17.57 ± 0.26	16.85 ± 0.25	16.38 ± 0.25
x2 = 0.5071	20.08 ± 0.27	19.46 ± 0.27	18.84 ± 0.26	18.29 ± 0.26	17.72 ± 0.26	17.04 ± 0.25	16.56 ± 0.25
x2 = 0.5909	20.26 ± 0.27	19.67 ± 0.27	19.02 ± 0.26	18.45 ± 0.26	17.93 ± 0.26	17.26 ± 0.25	16.74 ± 0.25
x2 = 0.7036	20.61 ± 0.27	20.02 ± 0.27	19.36 ± 0.26	18.8 ± 0.26	18.26 ± 0.26	17.7 ± 0.25	17.21 ± 0.25
x2 = 0.8032	21.05 ± 0.27	20.46 ± 0.27	19.88 ± 0.27	19.32 ± 0.26	18.82 ± 0.26	18.31 ± 0.26	17.85 ± 0.25
x2 = 0.9021	21.78 ± 0.27	21.28 ± 0.27	20.73 ± 0.27	20.22 ± 0.27	19.81 ± 0.26	19.38 ± 0.26	18.91 ± 0.26
x2 = 0.932	22.11 ± 0.28	21.64 ± 0.27	21.11 ± 0.27	20.64 ± 0.27	20.22 ± 0.27	19.82 ± 0.26	19.36 ± 0.26

CCCCCC [hexane]
Conditions	surface tension liquid-gas [mN/m]
283.15 K	19.63 ± 0.28
288.15 K	19.04 ± 0.28
293.15 K	18.52 ± 0.27
298.15 K	18.06 ± 0.27
303.15 K	17.53 ± 0.26
308.15 K	16.74 ± 0.26
313.15 K	16.47 ± 0.26
